This is an account of results in patent publication US8575091B1, “Amylin analogues and pharmaceutical compositions thereof” (Novo Nordisk A/S, priority 2012, dated 2013).

The structures appear in SMILES notation. Where two headings read alike, the source gives them in different places. Numbered stars: 1 amine (or outer) side, 2 acyl side, 3 side chain; on linkers, the order of the positions; unused ones are H or OH. Bridge positions count the residues as written; N and C are the ends. Peptide text beside a SMILES is read from it. * marks the point of attachment. C20 diacid = O=C(O)CCCCCCCCCCCCCCCCCCC(=O)*; γGlu = O=C(O)[C@H](CCC(=O)[*:2])N[*:1]

Usually EC50 stands for the concentration needed to bring the measured effect to its halfway point. Usually IC50 stands for the point on the concentration scale where inhibition reaches its midpoint.

Test [1] addresses T1, human amylin receptor (amylin 3(a) receptor: human calcitonin receptor + RAMP-3) (Homo sapiens, UniProt O60896+P30988).
T1 construct: expressed in transfected cells
T1 sequence (P30988 25-474): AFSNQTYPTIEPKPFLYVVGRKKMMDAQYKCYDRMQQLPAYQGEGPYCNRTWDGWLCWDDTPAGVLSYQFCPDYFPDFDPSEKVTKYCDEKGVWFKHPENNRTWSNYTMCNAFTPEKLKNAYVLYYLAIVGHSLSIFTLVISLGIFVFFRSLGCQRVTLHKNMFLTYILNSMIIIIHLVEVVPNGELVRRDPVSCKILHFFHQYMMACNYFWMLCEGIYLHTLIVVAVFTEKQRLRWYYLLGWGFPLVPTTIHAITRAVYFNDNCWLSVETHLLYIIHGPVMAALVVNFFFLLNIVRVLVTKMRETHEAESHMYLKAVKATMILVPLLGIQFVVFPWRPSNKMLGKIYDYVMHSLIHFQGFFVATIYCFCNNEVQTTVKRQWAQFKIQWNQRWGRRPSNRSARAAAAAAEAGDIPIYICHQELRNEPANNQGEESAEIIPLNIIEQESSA
T1 sequence (O60896 24-148 partner): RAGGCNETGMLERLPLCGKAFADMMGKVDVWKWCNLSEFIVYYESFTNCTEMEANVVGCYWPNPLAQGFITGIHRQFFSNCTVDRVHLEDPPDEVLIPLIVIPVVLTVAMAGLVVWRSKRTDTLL
As to the kind of experiment: Assay (II)a functional assay, human amylin receptor (CRE luciferase, BHK cells). To be noted: for EC50: read-out: hAmylin-R funct. EC50. It counts as cell-based.

Test [2] addresses T2, human calcitonin receptor (Homo sapiens, UniProt P30988).
T2 construct: expressed in transfected cells
T2 sequence (P30988 25-474): T1 sequence (P30988 25-474)
Kind of test: Assay (II)a functional assay, human calcitonin receptor (CRE luciferase, BHK cells).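 Note: luminescence from a CRE-driven luciferase reporter, read by single photon counting after cells were exposed to test samples for 3 h at 37 °C under 5% CO2.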 The format is cell-based. The settings on record: read-out: hCTR funct. EC50.

The target in another test is T3, human amylin receptor (Homo sapiens, UniProt O60896+P30988).
T3 construct: expressed in transfected cells
T3 sequence (P30988 25-474): T1 sequence (P30988 25-474)
T3 sequence (O60896 24-148 partner): T1 sequence (O60896 24-148 partner)
As to the kind of experiment: Assay (V) binding to the human amylin receptor (SPA, 125I-rat amylin). The settings on record: for IC50: human amylin receptor membranes, SPA, read-out: hAmylin-R bind IC50. The method in brief: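 IC50, taken as receptor affinity, came from one-site binding competition analysis of scintillation proximity counts. Amylin 3(a)/CRE-luc cell membranes (35 ng/μL final) were mixed with SPA beads (0.05 mg/well) in 50 mM Hepes pH 7.4 containing CaCl2, MgCl2, 0.1% OA and 0.02% Tween20.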

In test [3] the target is T2, human calcitonin receptor. As to the kind of experiment: Assay (VII) binding to the human calcitonin receptor (SPA, 125I-Calcitonin).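 Note: cell membranes coupled to SPA beads, competitive displacement read by scintillation counting, IC50 derived from a one-site competition fit as a measure of receptor affinity.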 To be noted: read-out: hCTR bind IC50.
Method: Membranes were prepared in the following way; the cells were rinsed with PBS and incubated with Versene for approximately 5 min before harvesting. The cells were flushed with PBS and the cell-suspension was centrifuged for 5 min at 1000 rpm. […] The resulting pellet was resuspended in buffer 2 and protein concentration was measured (BCA protein Assay, Pierce). The homogenate was kept cold during the whole procedure. The membranes were kept at −80° C. until use. Assay was performed in a 384 well Optiplate (PerkinElmer) in a total volume of 40 ul. Membranes were mixed with SPA beads. Final concentration of membranes 35 ng/μL final and Final concentration of SPA beads was 0.05 mg/well. Test-compounds were dissolved in DMSO and further diluted in assay buffer (50 mM Hepes, pH 7.4, 1 mM CaCl2, 5 mM MgCl2, 0.1% OA and 0.02% Tween20). […] Samples were analyzed on TopCounter™ (Packard). The IC50 was calculated using (one site binding competition analysis) GraphPad Prism5 as a measure of receptor affinity.
The mark [4] stands for this setting: functional assay, human amylin receptor.
The mark [5] stands for this setting: Table 6, human functional selectivity (hCTR EC50 / hAmylin-R EC50).
The mark [6] stands for this setting: Table 6a, human functional selectivity (hCTR EC50 / hAmylin-R EC50), at least 5.
The mark [7] stands for this setting: Table 6i, hCTR funct. EC50 / hAmylin-R funct. EC50.
Where [8] appears, read: Table 6i, human amylin receptor functional.
The mark [9] stands for this setting: Table 6j, hCTR funct. EC50 / hAmylin-R funct. EC50.
[10] abbreviates: Table 6k, hCTR funct. EC50 / hAmylin-R funct. EC50.

As to `CC[C@H](C)[C@H](NC(=O)[C@H](C)NC(=O)CNC(=O)[C@H](Cc1ccccc1)NC(=O)[C@H](CC(N)=O)NC(=O)[C@@H]1CCCN1C(=O)[C@H](CO)NC(=O)[C@H](CO)NC(=O)[C@H](Cc1c[nH]cn1)NC(=O)[C@H](CCCNC(=N)N)NC(=O)[C@H](CC(C)C)NC(=O)[C@H](Cc1ccccc1)NC(=O)[C@H](CC(N)=O)NC(=O)[C@H](C)NC(=O)[C@H](CC(C)C)NC(=O)[C@H](CCCNC(=N)N)NC(=O)[C@H](CCC(N)=O)NC(=O)[C@@H](NC(=O)[C@H](C)NC(=O)[C@@H]1CSSC[C@H](NC(=O)[C@@H](N)CCCCNC(=O)CC[C@H](NC(=O)CCCCCCCCCCCCCCCCCCC(=O)O)C(=O)O)C(=O)N[C@@H](CC(N)=O)C(=O)N[C@@H]([C@@H](C)O)C(=O)N[C@@H](C)C(=O)N[C@@H]([C@@H](C)O)C(=O)N1)[C@@H](C)O)C(=O)N1CCC[C@H]1C(=O)N[C@@H](CO)C(=O)N[C@@H](CO)C(=O)N[C@H](C(=O)N[C@@H](CC(N)=O)C(=O)N[C@H](C(=O)NCC(=O)N[C@@H](CO)C(=O)N[C@@H](CCC(=O)O)C(=O)N[C@H](C(=O)N[C@@H](Cc1ccc(O)cc1)C(N)=O)[C@@H](C)O)C(C)C)[C@@H](C)O` [Example 27], the results for the concentration for a half-maximal effect (EC50) in test [1] (setting [4]) and in test [2] were 0.133 nM and 3 nM, respectively. Also, the results for the half-inhibitory concentration (IC50) (at human amylin receptor; in test [3]) were 0.837 nM and 34.5 nM, respectively.
For the compound `CC[C@H](C)[C@H](NC(=O)[C@H](C)NC(=O)CNC(=O)[C@H](Cc1ccccc1)NC(=O)[C@H](CC(N)=O)NC(=O)[C@@H]1CCCN1C(=O)[C@H](CO)NC(=O)[C@H](CO)NC(=O)[C@H](Cc1c[nH]cn1)NC(=O)[C@H](CCCNC(=N)N)NC(=O)[C@H](CC(C)C)NC(=O)[C@H](Cc1ccccc1)NC(=O)[C@H](Cc1c[nH]cn1)NC(=O)[C@H](C)NC(=O)[C@H](CC(C)C)NC(=O)[C@H](CCCNC(=N)N)NC(=O)[C@H](CCC(N)=O)NC(=O)[C@@H](NC(=O)[C@H](C)NC(=O)[C@@H]1CSSC[C@H](NC(=O)[C@H](CCCCN)NC(=O)CC[C@H](NC(=O)CCCCCCCCCCCCCCCCCCC(=O)O)C(=O)O)C(=O)N[C@@H](CC(N)=O)C(=O)N[C@@H]([C@@H](C)O)C(=O)N[C@@H](C)C(=O)N[C@@H]([C@@H](C)O)C(=O)N1)[C@@H](C)O)C(=O)N1CCC[C@H]1C(=O)N[C@@H](CO)C(=O)N[C@@H](CO)C(=O)N[C@H](C(=O)N[C@@H](CC(N)=O)C(=O)N[C@H](C(=O)NCC(=O)N[C@@H](CO)C(=O)N[C@@H](CCC(=O)O)C(=O)N[C@H](C(=O)N[C@@H](Cc1ccc(O)cc1)C(N)=O)[C@@H](C)O)C(C)C)[C@@H](C)O` [Example 30] ({C20 diacid-γGlu}-KCNTATCATQRLAHFLRHSSPNFGAIPSSTNVGSETY-NH2; disulfide 2-7), the EC50 in test [1] (setting [4]) was 0.134 nM; in test [2] it was 1.68 nM. Further, the half-inhibitory concentration (IC50) at human amylin receptor came out at 0.919 nM; in test [3], 21.7 nM.
Turning to `CC[C@H](C)[C@H](NC(=O)[C@H](C)NC(=O)CNC(=O)[C@H](Cc1ccccc1)NC(=O)[C@H](CC(N)=O)NC(=O)[C@@H]1CCCN1C(=O)[C@H](CO)NC(=O)[C@H](CO)NC(=O)[C@H](Cc1c[nH]cn1)NC(=O)[C@H](CCCNC(=N)N)NC(=O)[C@H](CC(C)C)NC(=O)[C@H](Cc1ccccc1)NC(=O)[C@H](CCC(=O)O)NC(=O)[C@H](C)NC(=O)[C@H](CC(C)C)NC(=O)[C@H](CCCNC(=N)N)NC(=O)[C@H](CCC(N)=O)NC(=O)[C@@H](NC(=O)[C@H](C)NC(=O)[C@@H]1CSSC[C@H](NC(=O)[C@H](CCCCN)NC(=O)CC[C@H](NC(=O)CCCCCCCCCCCCCCCCCCC(=O)O)C(=O)O)C(=O)N[C@@H](CC(N)=O)C(=O)N[C@@H]([C@@H](C)O)C(=O)N[C@@H](C)C(=O)N[C@@H]([C@@H](C)O)C(=O)N1)[C@@H](C)O)C(=O)N1CCC[C@H]1C(=O)N[C@@H](CO)C(=O)N[C@@H](CO)C(=O)N[C@H](C(=O)N1CCC[C@H]1C(=O)N[C@H](C(=O)NCC(=O)N[C@@H](CO)C(=O)N[C@@H](CC(N)=O)C(=O)N[C@H](C(=O)N[C@@H](Cc1ccc(O)cc1)C(N)=O)[C@@H](C)O)C(C)C)[C@@H](C)O` [Example 31] ({C20 diacid-γGlu}-KCNTATCATQRLAEFLRHSSPNFGAIPSSTPVGSNTY-NH2; disulfide 2-7), the “Ratio hCT/hAmylin funct.” value in test [1] (setting [5]), in test [1] (setting [6]), in test [1] (setting [7]), in test [1] (setting [9]) and in test [1] (setting [10]) was 6.4 throughout. The figures for the EC50 in test [1] (setting [8]) and in test [2] were 0.112 nM and 0.717 nM, respectively. In addition, the “Ratio hCT/hAmylin binding” value on human amylin receptor (Table 7b, human calcitonin receptor binding IC50 divided by human amylin receptor binding IC50) was determined as 16.0; at human amylin receptor (human binding ratio, included for comparison), 16.0. The IC50 came out at 0.204 nM on human amylin receptor and 3.26 nM in test [3].
For the compound `CC[C@H](C)[C@H](NC(=O)[C@H](C)NC(=O)CNC(=O)[C@H](Cc1ccccc1)NC(=O)[C@H](CC(N)=O)NC(=O)[C@@H]1CCCN1C(=O)[C@H](CO)NC(=O)[C@H](CO)NC(=O)[C@H](Cc1c[nH]cn1)NC(=O)[C@H](CCCNC(=N)N)NC(=O)[C@H](CC(C)C)NC(=O)[C@H](Cc1ccccc1)NC(=O)[C@H](CCC(=O)O)NC(=O)[C@H](C)NC(=O)[C@H](CC(C)C)NC(=O)[C@H](CCCNC(=N)N)NC(=O)[C@H](CCC(N)=O)NC(=O)[C@@H](NC(=O)[C@H](C)NC(=O)[C@@H]1CSSC[C@H](NC(=O)[C@H](CCCCN)NC(=O)CC[C@H](NC(=O)CCCCCCCCCCCCCCCCCCC(=O)O)C(=O)O)C(=O)N[C@@H](CC(N)=O)C(=O)N[C@@H]([C@@H](C)O)C(=O)N[C@@H](C)C(=O)N[C@@H]([C@@H](C)O)C(=O)N1)[C@@H](C)O)C(=O)N1CCC[C@H]1C(=O)N[C@@H](CO)C(=O)N[C@@H](CO)C(=O)N[C@H](C(=O)N[C@@H](CC(N)=O)C(=O)N[C@H](C(=O)NCC(=O)N[C@@H](CCCCN)C(=O)N[C@@H](CC(N)=O)C(=O)N[C@H](C(=O)N[C@@H](Cc1ccc(O)cc1)C(N)=O)[C@@H](C)O)C(C)C)[C@@H](C)O` [Example 36] ({C20 diacid-γGlu}-KCNTATCATQRLAEFLRHSSPNFGAIPSSTNVGKNTY-NH2; disulfide 2-7), the “Ratio hCT/hAmylin funct.” value in test [1] (setting [5]), in test [1] (setting [6]), in test [1] (setting [7]), in test [1] (setting [9]) and in test [1] (setting [10]) was 6.8 each time. Further, the 50% effective concentration (EC50) in test [1] (setting [8]) is 0.189 nM; in test [2] it was 1.28 nM. Also, the half-inhibitory concentration (IC50) on human amylin receptor stood at 0.403 nM; in test [3] it was 6.31 nM.
For the compound `CC[C@H](C)[C@H](NC(=O)[C@H](C)NC(=O)CNC(=O)[C@H](Cc1ccccc1)NC(=O)[C@H](CC(N)=O)NC(=O)[C@@H]1CCCN1C(=O)[C@H](CO)NC(=O)[C@H](CO)NC(=O)[C@H](Cc1c[nH]cn1)NC(=O)[C@H](CCCNC(=N)N)NC(=O)[C@H](CC(C)C)NC(=O)[C@H](Cc1ccccc1)NC(=O)[C@H](CC(N)=O)NC(=O)[C@H](C)NC(=O)[C@H](CC(C)C)NC(=O)[C@H](CCCNC(=N)N)NC(=O)[C@H](CCC(N)=O)NC(=O)[C@@H](NC(=O)[C@H](C)NC(=O)[C@@H]1CSSC[C@H](NC(=O)[C@H](CCCCN)NC(=O)CC[C@H](NC(=O)CCCCCCCCCCCCCCCCCCC(=O)O)C(=O)O)C(=O)N[C@@H](CC(N)=O)C(=O)N[C@@H]([C@@H](C)O)C(=O)N[C@@H](C)C(=O)N[C@@H]([C@@H](C)O)C(=O)N1)[C@@H](C)O)C(=O)N1CCC[C@H]1C(=O)N[C@@H](CO)C(=O)N[C@@H](CO)C(=O)N[C@H](C(=O)N[C@@H](CC(N)=O)C(=O)N[C@H](C(=O)NCC(=O)N[C@@H](Cc1c[nH]cn1)C(=O)N[C@@H](CC(N)=O)C(=O)N[C@H](C(=O)N[C@@H](Cc1ccc(O)cc1)C(N)=O)[C@@H](C)O)C(C)C)[C@@H](C)O` [Example 40], the results for the EC50 in test [1] (setting [4]) and in test [2] were 0.164 nM and 2.68 nM, respectively. Also, the IC50 at human amylin receptor came out at 0.549 nM; in test [3] it was 17.1 nM.
